This note sets out measurements from ChEMBL document CHEMBL5120976, “Application of Deuterated N,N-Dimethyltryptamine in the Potential Treatment of Psychiatric and Neurological Disorders” (ACS Med Chem Lett, 2022).

Holding throughout (assay type): ADME, cell-based, Hepatocyte
Series [1] in a line: Half life in human hepatocytes.
Series [2] can be described thus: Intrinsic clearance in human hepatocytes assessed per 10^6 cells. The conditions noted are these: read-out: CLH.
The nature of series [3]: Intrinsic clearance in human hepatocytes assessed per 10^6 cells relative to SPL026.

A word on the half-life: it is the time needed for the level to fall by half in the phase considered. Low readings indicate fast loss, high ones slow loss. In the case of `O=C(O)/C=C/C(=O)O.[2H]C([2H])([2H])N(C([2H])([2H])[2H])C([2H])([2H])Cc1c[nH]c2ccccc12`, in series [1], the half-life is 3.45 h. The hepatocyte CLint in series [2] came to 9.3 µL/min/1e6 cells. In addition, the “fold change (FC)” value in series [3] came to 2.1.

In the case of `O=C(O)/C=C/C(=O)O.[2H]C([2H])([2H])N(CCc1c[nH]c2ccccc12)C([2H])([2H])[2H]`, the “fold change (FC)” value in series [3] was found to be 1.1.
